Measurements published in patent US9394290B2, “Selective CYP11B1 inhibitors for the treatment of cortisol dependent diseases” (UNIVERSITAET DES SAARLANDES CAMPUS SAARBRUECKEN, priority 2010, dated 2016).

Experiments:
human CYP11B1 = human CYP11B1 (Homo sapiens (Human), UniProt P15538); test: Cellular assay for CYP11B1 inhibition (V79MZh11B1 hamster fibroblasts, substrate 11-deoxycorticosterone); details: for sf: selectivity factor: IC50 (CYP11B2)/IC50 (CYP11B1): ratio IC50 (CYP11B2)/IC50 (CYP11B1); for IC50: read-out: IC50 value CYP11B1, Hamster fibroblasts expressing human CYP11B1, substrate 11-deoxycorticosterone, 100 nM, mean of at least three experiments
Chain of human CYP11B1 (P15538 25-503): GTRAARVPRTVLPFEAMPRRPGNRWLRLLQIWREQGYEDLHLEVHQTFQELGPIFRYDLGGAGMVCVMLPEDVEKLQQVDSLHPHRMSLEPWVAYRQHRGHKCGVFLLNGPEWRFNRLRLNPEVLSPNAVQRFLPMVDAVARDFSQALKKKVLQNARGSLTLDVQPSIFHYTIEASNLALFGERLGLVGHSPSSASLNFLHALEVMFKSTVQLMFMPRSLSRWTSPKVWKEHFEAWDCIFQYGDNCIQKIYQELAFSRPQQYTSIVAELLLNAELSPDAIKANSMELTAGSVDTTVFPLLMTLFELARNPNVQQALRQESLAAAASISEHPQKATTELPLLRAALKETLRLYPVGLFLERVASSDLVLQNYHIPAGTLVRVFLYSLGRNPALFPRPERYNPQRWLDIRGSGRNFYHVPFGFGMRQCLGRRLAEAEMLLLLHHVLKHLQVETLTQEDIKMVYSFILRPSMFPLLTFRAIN

human CYP11B2 = human CYP11B2 (Homo sapiens (Human), UniProt P19099); test: Cellular assay for CYP11B2 inhibition (V79MZh11B2 hamster fibroblasts, substrate 11-deoxycorticosterone); details: for IC50: read-out: IC50 value CYP11B2, Hamster fibroblasts expressing human CYP11B2, 100 nM, mean of at least three experiments, n.i. = no inhibition at an inhibitor concentration of 500 nM
Chain of human CYP11B2 (P19099 25-503): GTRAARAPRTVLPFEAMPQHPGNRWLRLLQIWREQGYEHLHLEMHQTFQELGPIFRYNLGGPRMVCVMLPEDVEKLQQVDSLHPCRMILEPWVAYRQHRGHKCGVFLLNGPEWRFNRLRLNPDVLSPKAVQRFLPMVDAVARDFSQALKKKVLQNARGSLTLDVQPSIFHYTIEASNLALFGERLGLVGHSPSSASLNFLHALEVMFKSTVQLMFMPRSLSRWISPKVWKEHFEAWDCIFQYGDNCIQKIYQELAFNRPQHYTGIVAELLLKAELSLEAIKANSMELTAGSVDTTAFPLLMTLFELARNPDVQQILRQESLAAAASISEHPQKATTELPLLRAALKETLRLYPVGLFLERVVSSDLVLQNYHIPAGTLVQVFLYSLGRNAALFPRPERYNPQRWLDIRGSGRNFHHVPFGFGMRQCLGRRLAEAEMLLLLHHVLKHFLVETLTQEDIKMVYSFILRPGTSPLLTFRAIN

human CYP17 = human CYP17 (Homo sapiens (Human), UniProt P05093); test: CYP17 inhibition assay (membrane fraction of E. coli expressing human CYP17, substrate progesterone); assay type: biochemical; details: 25 μM, inhibitor concentration 2.0 μM, read-out: inhibition (%) CYP 17
Chain of human CYP17 (P05093 whole entry): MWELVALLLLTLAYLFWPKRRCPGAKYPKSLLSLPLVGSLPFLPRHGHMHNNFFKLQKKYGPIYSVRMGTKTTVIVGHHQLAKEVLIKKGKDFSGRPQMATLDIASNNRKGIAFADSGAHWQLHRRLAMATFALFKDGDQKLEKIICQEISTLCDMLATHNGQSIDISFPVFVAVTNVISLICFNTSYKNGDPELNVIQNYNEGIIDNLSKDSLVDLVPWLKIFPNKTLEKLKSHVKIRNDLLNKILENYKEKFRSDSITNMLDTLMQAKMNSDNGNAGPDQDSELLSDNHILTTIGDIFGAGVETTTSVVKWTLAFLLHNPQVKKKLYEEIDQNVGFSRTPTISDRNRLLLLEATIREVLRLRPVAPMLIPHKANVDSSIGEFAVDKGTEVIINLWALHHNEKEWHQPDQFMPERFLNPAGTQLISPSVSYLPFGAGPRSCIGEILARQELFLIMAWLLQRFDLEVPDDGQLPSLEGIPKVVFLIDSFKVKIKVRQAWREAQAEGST
Procedure: Recombinant E. coli pJL17/OR coexpressing human CYP17 and rat NADPH-P450-reductase were grown and stored as described by Ehmer et al. (J. Steroid Biochem. Mol. Biol., 2000, 75, 57-63)
For isolation of membrane fractions, 5 ml of bacterial suspension with an OD578 of 50 were washed using phosphate buffer (0.05 M, pH 7.4, 1 mM MgCl2, 0.1 mM EDTA and 0.1 mM dithiothreitol). Bacteria were harvested by centrifugation (2000×g) and the pellet was resuspended in 10 ml ice-cold TES buffer (0.1 M tris-acetate, pH 7.8, 0.5 mM EDTA, 0.5 M sucrose). Lysozyme was added with 10 ml of ice-cold water resulting in a concentration of 0.2 mg/ml followed by incubation for 30 min on ice with continuous shaking. Spheroplasts were harvested by centrifugation (12000×g, 10 min), and resuspended in 4 ml of ice-cold phosphate buffer (the same as described above plus 0.5 mM phenylmethylsulfonylfluoride (PMSF)).
After that spheroplasts were sonicated on ice (pulse 20 s on, 30 s off, five times), using a sonicator Sonopuls HD60 (Bandelin, Berlin, Germany) at maximum power. Unbroken cells and debris were pelleted at 3000×g for 7 min, and the supernatant was centrifuged at 50000×g for 20 min at 4° C. The membrane pellet was resuspended in 2 ml of phosphate buffer (the same as described above) with 20% glycerol using an ultra-turrax T25 (IKA-Labortechnik, Staufen, Germany). Protein concentration was determined by the method of Lowry.
The assay was performed as follows: a solution of 6.25 nmol progesterone (in 5 μl methanol) in 140 μl phosphate buffer (0.05 M, pH 7.4, 1 mM MgCl2, 0.1 mM EDTA and 0.1 mM dithiothreitol), 50 μl NADPH generating system (in phosphate buffer with 10 mM NADP, 100 mM glucose-6-phosphate and 2.5 units of glucose-6-phosphate-dehydrogenase) and inhibitor (in 5 μl DMSO) was pre-incubated at 37° C. for 5 min. Control cups were supplemented with 5 μl DMSO without inhibitor. The reaction was started by adding 50 μl of a 1:5 diluted membrane suspension in phosphate buffer (0.8-1.0 mg protein per ml). The maximum DMSO concentration in each sample was 2%. After mixing, incubation was performed for 30 min at 37° C. Subsequently the reaction was stopped with 50 μl 1 N HCl.
Extraction of the steroids was performed by addition of 1.0 ml ethyl acetate and vigorous shaking for 1 min. After a centrifugation step (5 min, 2500×g) the organic phase (0.9 ml) was transferred into a fresh cup containing 0.25 ml of incubation buffer and 50 μl 1 N HCl and mixed again. After centrifugation, 0.8 ml ethyl acetate solution was evaporated to dryness in a fresh cup. After that the steroids were redissolved in solvent for HPLC analysis (Hutschenreuter et. al. J. Enz. Inhib. Med. Chem. 2004, 19, 17-32).
The above experiment was conducted at least three times and a mean value for the CYP17 inhibition calculated.

Human placental CYP19 = Human placental CYP19 (Homo sapiens (Human), UniProt P11511); test: CYP19 (aromatase) assay, human placental microsomes, 3H2O release; assay type: biochemical; details: substrate androstenedione, 500 nM, inhibitor concentration 500 nM, read-out: inhibition (%) CYP 19
Chain of Human placental CYP19 (P11511 whole entry): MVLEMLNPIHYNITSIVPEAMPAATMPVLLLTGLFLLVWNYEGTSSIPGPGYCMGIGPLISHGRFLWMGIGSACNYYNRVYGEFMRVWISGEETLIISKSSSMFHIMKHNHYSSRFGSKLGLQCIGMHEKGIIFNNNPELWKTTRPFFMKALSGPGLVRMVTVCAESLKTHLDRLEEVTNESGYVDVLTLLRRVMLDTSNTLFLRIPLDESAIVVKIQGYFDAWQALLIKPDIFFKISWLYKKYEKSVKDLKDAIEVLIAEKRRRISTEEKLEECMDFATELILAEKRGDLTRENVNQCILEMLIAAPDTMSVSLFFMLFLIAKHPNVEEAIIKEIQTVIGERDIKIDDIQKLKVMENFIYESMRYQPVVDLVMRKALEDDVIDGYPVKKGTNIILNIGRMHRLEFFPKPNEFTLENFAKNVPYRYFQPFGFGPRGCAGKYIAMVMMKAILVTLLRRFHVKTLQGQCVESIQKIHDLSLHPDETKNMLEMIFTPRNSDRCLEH
Procedure: The enzyme was obtained from the microsomal fraction of freshly delivered human term placental tissue according to the procedure of Thompson and Siiteri (Thompson, E. A.; Siiteri, P. K. J. Biol. Chem. 1974, 249, 5364).
The isolated microsomes were suspended in a minimum volume of phosphate buffer (0.05 M, pH 7.4, 20% glycerol). Additionally, DTT (dithiothreitol, 10 mM) and EDTA (1 mM) were added to protect the enzyme from degradation. The enzyme preparation was stored at −70° C.
The assay was performed monitoring enzyme activity by measuring the ^3H2O formed from [1β-^3H]androstenedione during aromatization (Hartmann et al. J. Med. Chem. 1986, 29, 1362-1369). […] The test compounds were dissolved in DMSO and diluted with buffer. The final DMSO concentration in the control and inhibitor incubation was 2%. Each tube was pre-incubated for 5 min at 30° C. in a water bath. Microsomal protein was added to start the reaction (0.1 mg). The total volume for each incubation was 0.25 ml. The reaction was terminated by the addition of 200 μl of a cold 1 mM HgCl2 solution. After addition of 200 μl of an aqueous dextran-coated charcoal (DCC) suspension (2%), the vials were shaken for 20 min and centrifuged at 1500×g for 5 min to separate the charcoal-absorbed steroids. The supernatant was assayed for ^3H2O by counting in a scintillation mixture using a β-counter. The calculation of the IC50 values was performed by plotting the percent inhibition vs. the concentration of inhibitor on a semi-log plot.
The above experiment was conducted at least three times and a mean value for the CYP19 inhibition calculated.

c1ccc(-c2ccc(Cn3ccnc3)cn2)cc1 [Compound 1, 5-Imidazol-1-ylmethyl-2-phenyl-pyridine]
sf: selectivity factor: IC50 (CYP11B2)/IC50 (CYP11B1) (human CYP11B1): 18 | IC50 (human CYP11B1): 152 nM | IC50 (human CYP11B2): 2770 nM

Brc1ccc(Cn2ccnc2)cn1 [Compound 1a, 5-Imidazol-1-ylmethyl-2-bromopyridine]
IC50 (human CYP11B1): 500 nM | IC50 (human CYP11B2): > 1000 nM

c1cc(Cn2ccnc2)ccn1 [Compound 2, 4-Imidazol-1-ylmethyl-pyridine]
IC50 (human CYP11B1): 663 nM | IC50 (human CYP11B2): > 1000 nM

c1cncc(Cn2ccnc2)c1 [Compound 3, 3-Imidazol-1-ylmethyl-pyridine]
IC50 (human CYP11B1): 816 nM | IC50 (human CYP11B2): > 1000 nM

N#Cc1ncccc1Cn1ccnc1 [Compound 4, 3-Imidazol-1-ylmethyl-pyridine-2-carbonitrile]
IC50 (human CYP11B1): 971 nM | IC50 (human CYP11B2): > 1000 nM

Brc1ncccc1Cn1ccnc1 [Compound 5, 2-Bromo-3-imidazol-1-ylmethyl-pyridine]
inhibition at 2 µM (human CYP17): 3% | inhibition at 0.5 µM (Human placental CYP19): 2% | sf: selectivity factor: IC50 (CYP11B2)/IC50 (CYP11B1) (human CYP11B1): 15 | IC50 (human CYP11B1): 61 nM | IC50 (human CYP11B2): 911 nM

Clc1ncc(Cn2ccnc2)cc1Br [Compound 6, 3-Bromo-2-chloro-5-imidazol-1-ylmethyl-pyridine]
sf: selectivity factor: IC50 (CYP11B2)/IC50 (CYP11B1) (human CYP11B1): 3.4 | IC50 (human CYP11B1): 168 nM | IC50 (human CYP11B2): 576 nM

Fc1ccccc1-c1ccc(Cn2ccnc2)cn1 [Compound 7, 2-(2-Fluoro-phenyl)-5-imidazol-1-ylmethyl-pyridine]
inhibition at 2 µM (human CYP17): 3% | inhibition at 0.5 µM (Human placental CYP19): 0% | sf: selectivity factor: IC50 (CYP11B2)/IC50 (CYP11B1) (human CYP11B1): 24 | IC50 (human CYP11B1): 72 nM | IC50 (human CYP11B2): 1740 nM

Fc1cccc(-c2ccc(Cn3ccnc3)cn2)c1 [Compound 8, 2-(3-Fluoro-phenyl)-5-imidazol-1-ylmethyl-pyridine]
inhibition at 2 µM (human CYP17): 1% | IC50 (human CYP11B1): 320 nM | IC50 (human CYP11B2): > 1000 nM

Fc1ccc(-c2ccc(Cn3ccnc3)cn2)cc1 [Compound 9, 2-(4-Fluoro-phenyl)-5-imidazol-1-ylmethyl-pyridine]
inhibition at 2 µM (human CYP17): 5% | sf: selectivity factor: IC50 (CYP11B2)/IC50 (CYP11B1) (human CYP11B1): 10 | IC50 (human CYP11B1): 213 nM | IC50 (human CYP11B2): 2150 nM

Fc1ccc(-c2ccc(Cn3ccnc3)cn2)cc1F [Compound 10, 2-(3,4-Difluoro-phenyl)-5-imidazol-1-ylmethyl-pyridine]
inhibition at 2 µM (human CYP17): 0% | sf: selectivity factor: IC50 (CYP11B2)/IC50 (CYP11B1) (human CYP11B1): 5 | IC50 (human CYP11B1): 329 nM | IC50 (human CYP11B2): 1660 nM

Oc1ccc(-c2ccc(Cn3ccnc3)cn2)cc1F [Compound 11, 2-Fluoro-4-(5-imidazol-1-ylmethyl-pyridin-2-yl)-phenol]
inhibition at 2 µM (human CYP17): 2.6% | inhibition at 0.5 µM (Human placental CYP19): 0% | sf: selectivity factor: IC50 (CYP11B2)/IC50 (CYP11B1) (human CYP11B1): 14 | IC50 (human CYP11B1): 17 nM | IC50 (human CYP11B2): 237 nM

COc1ccc(-c2ccc(Cn3ccnc3)cn2)cc1 [Compound 13, 5-Imidazol-1-ylmethyl-2-(4-methoxy-phenyl)pyridine]
inhibition at 2 µM (human CYP17): 0% | IC50 (human CYP11B1): 782 nM | IC50 (human CYP11B2): > 1000 nM

COc1ccc(-c2ccc(Cn3ccnc3)cn2)cc1OC [Compound 14, 2-(3,4-Dimethoxy-phenyl)-5-imidazol-1-ylmethyl-pyridine]
inhibition at 2 µM (human CYP17): 2% | IC50 (human CYP11B1): > 1000 nM | IC50 (human CYP11B2): > 1000 nM

N#Cc1cccc(-c2ccc(Cn3ccnc3)cn2)c1 [Compound 19, 3-(5-Imidazol-1-ylmethyl-pyridin-2-yl)-benzonitrile]
IC50 (human CYP11B1): 409 nM | IC50 (human CYP11B2): > 1000 nM

N#Cc1ccc(-c2ccc(Cn3ccnc3)cn2)cc1 [Compound 20, 4-(5-Imidazol-1-ylmethyl-pyridin-2-yl)-benzonitrile]
IC50 (human CYP11B1): 782 nM | IC50 (human CYP11B2): > 1000 nM

O=Cc1ccc(-c2ccc(Cn3ccnc3)cn2)cc1 [Compound 21, 4-(5-Imidazol-1-ylmethyl-pyridin-2-yl)-benzaldehyde]
inhibition at 2 µM (human CYP17): 0% | IC50 (human CYP11B1): 246 nM | IC50 (human CYP11B2): > 1000 nM

c1ccc2cc(-c3ccc(Cn4ccnc4)cn3)ccc2c1 [Compound 24, 5-Imidazol-1-ylmethyl-2-naphthalen-2-yl-pyridine]
sf: selectivity factor: IC50 (CYP11B2)/IC50 (CYP11B1) (human CYP11B1): 3.2 | IC50 (human CYP11B1): 246 nM | IC50 (human CYP11B2): 782 nM

c1cncc(-c2ccc(Cn3ccnc3)cn2)c1 [Compound 26, 5-Imidazol-1-ylmethyl-[2,3′]bipyridinyl]
sf: selectivity factor: IC50 (CYP11B2)/IC50 (CYP11B1) (human CYP11B1): 8 | IC50 (human CYP11B1): 502 nM | IC50 (human CYP11B2): 3960 nM

c1cc(-c2ccc(Cn3ccnc3)cn2)ccn1 [Compound 27, 5-Imidazol-1-ylmethyl-[2,4′]bipyridinyl]
sf: selectivity factor: IC50 (CYP11B2)/IC50 (CYP11B1) (human CYP11B1): 3.5 | IC50 (human CYP11B1): 139 nM | IC50 (human CYP11B2): 487 nM

c1cn(Cc2ccc(-c3cncnc3)nc2)cn1 [Compound 28, 5-(5-Imidazol-1-ylmethyl-pyridin-2-yl)-pyrimidine]
IC50 (human CYP11B1): 971 nM | IC50 value CYP11B2 (human CYP11B2; Hamster fibroblasts expressing human CYP11B2, 100 nM, mean of at least three experiments, n.i. = no inhibition at an inhibitor concentration of 500 nM): n.i.^d

COc1ccc(-c2ccc(Cn3ccnc3)cn2)cn1 [Compound 29, 5-Imidazol-1-ylmethyl-6′-methoxy-[2,3′]bipyridinyl]
IC50 (human CYP11B1): > 1000 nM | IC50 (human CYP11B2): > 1000 nM

c1ccc2c(-c3ccc(Cn4ccnc4)cn3)cncc2c1 [Compound 30, 4-(5-Imidazol-1-ylmethyl-pyridin-2-yl)-isoquinoline]
sf: selectivity factor: IC50 (CYP11B2)/IC50 (CYP11B1) (human CYP11B1): 10 | IC50 (human CYP11B1): 95 nM | IC50 (human CYP11B2): 914 nM

Clc1ccc(-c2ccc(Cn3ccnc3)cn2)s1 [Compound 33, 2-(5-Chloro-thiophen-2-yl)-5-imidazol-1-ylmethyl-pyridine]
sf: selectivity factor: IC50 (CYP11B2)/IC50 (CYP11B1) (human CYP11B1): 2.6 | IC50 (human CYP11B1): 362 nM | IC50 (human CYP11B2): 929 nM

c1ccc2sc(-c3ccc(Cn4ccnc4)cn3)cc2c1 [Compound 37, 2-Benzo[b]thiophen-2-yl-5-imidazol-1-ylmethyl-pyridine]
sf: selectivity factor: IC50 (CYP11B2)/IC50 (CYP11B1) (human CYP11B1): 1.0 | IC50 (human CYP11B1): 269 nM | IC50 (human CYP11B2): 281 nM

c1ccc2oc(-c3ccc(Cn4ccnc4)cn3)cc2c1 [Compound 41, 2-Benzo[b]furan-2-yl-5-imidazol-1-ylmethyl-pyridine]
IC50 (human CYP11B1): 500 nM | IC50 (human CYP11B2): > 1000 nM

CCOC(=O)c1cncn1[C@H](C)c1ccccc1 [ETO, etomidate, reference compound]
IC50 (human CYP11B2): 0.1 nM
